# Reference: patent US11071701B2, “Medicament and cosmetic composition comprising resorcinol derivatives” (Symrise AG, priority 2016, dated 2021)
# Experiments:
# [1] = tested on: Human epidermal melanoma cells A375; test: Visible light induced hyperpigmentation in vitro (melanin quantification); format: cell-based; settings: for Inhibition vs. visible light induced / Melanin: visible light 480 J/cm2; for Melanin: treated 48 h prior to and past irradiation; for inhibition of visible light induced hyperpigmentation (in words): summary of Table 1
# Protocol: Human epidermal melanoma cells A375 were cultured in 6-well plates. The cells were exposed to visible light (480 J/cm2) with Hydrosun 750 equipped with KG1 filter. 48 h prior to and past to the irradiation the cells were treated with test compounds in non-cytotoxic concentrations. Melanocytes were lysed in a solution of NaOH. Melanin was quantified by measurement of absorbance at 405 nm and calculation based on a melanin standard curve.
# [2] = tested on: ex vivo human skin explants; test: Melanin formation after visible light irradiation on ex vivo human skin; settings: visible light 480 J/cm2; for % of melanin: Fontana-Masson stain, image analysis
# Protocol: The below formulations were applied on ex vivo human skin explants from abdominal surgery of a donor with phototype IV (Fitzpatrick scale). 48 h after the formulations were removed with a cotton pad. Skin explants were exposed to visible light (480 J/cm2) with Hydrosun 750 equipped with KG1 filter. Formulations were reapplied afterwards. 48 h later skin sections were prepared and melanin was stained by Fontana-Masson stain. Quantification of melanin was done by image analysis.
compound,measurement,setting,value
"CCCCc1ccc(O)cc1O [4-Butylresorcinol, 4-butyl resorcinol]",Inhibition vs. visible light induced,[1]; concentration 0.0000316 %,58%
same,Melanin,[1]; concentration 0.0000316 %,2.3136 ± 0.6518 µg
same,Inhibition vs. visible light induced,[1]; concentration 0.0001000 %,100%
same,Melanin,[1]; concentration 0.0001000 %,1.8593 ± 0.5365 µg
same,Inhibition vs. visible light induced,[1]; concentration 0.0003160 %,183%
same,Melanin,[1]; concentration 0.0003160 %,0.9849 ± 0.0738 µg
same,inhibition of visible light induced hyperpigmentation (in words),[1],significantly inhibit
"CCCCCCc1ccc(O)cc1O [4-Hexylresorcinol, 4-hexyl resorcinol]",Inhibition vs. visible light induced,[1]; concentration 0.000005 %,91%
same,Melanin,[1]; concentration 0.000005 %,1.9616 ± 0.2899 µg
same,Inhibition vs. visible light induced,[1]; concentration 0.000015 %,102%
same,Melanin,[1]; concentration 0.000015 %,1.8407 ± 0.1988 µg
same,Inhibition vs. visible light induced,[1]; concentration 0.000050 %,166%
same,Melanin,[1]; concentration 0.000050 %,1.1668 ± 0.1312 µg
same,inhibition of visible light induced hyperpigmentation (in words),[1],significantly inhibit
"CC(c1ccccc1)c1ccc(O)cc1O (stereo not shown) [SymWhite ® 377, phenylethyl resorcinol]",% of melanin,[2]; 0.2% in formulation applied to skin explants (phototype IV),42.48 ± 2.6%
same,Inhibition vs Placebo,[2]; 0.2% in formulation applied to skin explants,67.5%
same,% of melanin,[2]; 0.5% in formulation applied to skin explants (phototype IV),25.91 ± 1.2%
same,Inhibition vs Placebo,[2]; 0.5% in formulation applied to skin explants,125.7%
same,Inhibition vs. visible light induced,[1]; concentration 0.000068 %,79%
same,Melanin,[1]; concentration 0.000068 %,0.5688 ± 0.0793 µg
same,Inhibition vs. visible light induced,[1]; concentration 0.000210 %,86%
same,Melanin,[1]; concentration 0.000210 %,0.5280 ± 0.0494 µg
same,Inhibition vs. visible light induced,[1]; concentration 0.000680 %,100%
same,Melanin,[1]; concentration 0.000680 %,0.4598 ± 0.1024 µg
same,inhibition of visible light induced hyperpigmentation (in words),[1],significantly inhibit
